Like-named read-outs stand apart in the source and are kept apart here. Starred links: 1 amine or outer side, 2 acyl side, 3 side chain; linkers in the order of their positions; H or OH if unused. Positions of bridges follow the written chain, without caps; N, C: chain ends. Non-standard residues stand in square brackets, D forms with d. Residues, ends and D or L forms follow the SMILES beside them. *: point of attachment. Orn(4R-OH,5R-OCH2CH2NMe3+) = C[N+](C)(C)CCO[C@@H](N[*:3])[C@H](O)C[C@H](N[*:1])C(=O)[*:2]; pTerphenylCO(4''-OnC5H11) = CCCCCOc1ccc(-c2ccc(-c3ccc(C(=O)*)cc3)cc2)cc1; hTyr(3S-OH,4S-OH) = N[C@H](C(=O)O)[C@H](O)[C@@H](O)c1ccc(O)cc1; Pro(3S-OH,4S-Me) = C[C@H]1CN[C@H](C(=O)O)[C@H]1O; Hyp = O=C(O)[C@@H]1C[C@@H](O)CN1
Experiments:
[1] = tested on: C. albicans strain 529L; assay: Rat model of vulvovaginal candidiasis, vaginal lavage and tissue burden; assay type: in vivo, Candida albicans
[2] = tested on: Candida auris strains; assay: Candida auris antifungal susceptibility testing (CLSI M27-A3), 38 strains; assay type: cell-based; settings: Candidozyma auris, 24 h, 24 h, read-out: MIC
[3] = 5 mg/kg SC Dosed Once, lavage Day 1 post infection, pre-treatment
[4] = 5 mg/kg SC Dosed Once, lavage Day 2 post infection
[5] = 5 mg/kg SC Dosed Once, lavage Day 3 post infection
[6] = 5 mg/kg SC Dosed Once, lavage Day 5 post infection
[7] = 5 mg/kg SC Dosed Once, lavage Day 7 post infection
[8] = 5 mg/kg SC Dosed Once, lavage Day 9 post infection
[9] = 5 mg/kg SC Dosed Once, terminal vaginal tissue Day +9 post infection
[10] = 5 mg/kg SC Dosed Twice, lavage Day 1 post infection, pre-treatment
[11] = 5 mg/kg SC Dosed Twice, lavage Day 2 post infection
[12] = 5 mg/kg SC Dosed Twice, lavage Day 3 post infection
[13] = 5 mg/kg SC Dosed Twice, lavage Day 5 post infection
[14] = 5 mg/kg SC Dosed Twice, lavage Day 7 post infection
[15] = 5 mg/kg SC Dosed Twice, lavage Day 9 post infection
[16] = 5 mg/kg SC Dosed Twice, terminal vaginal tissue Day +9 post infection
[17] = 10 mg/kg SC Dosed Once, lavage Day 1 post infection, pre-treatment
[18] = 10 mg/kg SC Dosed Once, lavage Day 2 post infection
[19] = 10 mg/kg SC Dosed Once, lavage Day 3 post infection
[20] = 10 mg/kg SC Dosed Once, lavage Day 5 post infection
[21] = 10 mg/kg SC Dosed Once, lavage Day 7 post infection
[22] = 10 mg/kg SC Dosed Once, lavage Day 9 post infection
[23] = 10 mg/kg SC Dosed Once, terminal vaginal tissue Day +9 post infection

## CCCCCOc1ccc(-c2ccc(-c3ccc(C(=O)N[C@H]4C[C@@H](O)[C@@H](OCC[N+](C)(C)C)NC(=O)[C@@H]5[C@@H](O)[C@@H](C)CN5C(=O)[C@H]([C@@H](C)O)NC(=O)[C@H]([C@H](O)[C@@H](O)c5ccc(O)cc5)NC(=O)[C@@H]5C[C@@H](O)CN5C(=O)[C@H]([C@@H](C)O)NC4=O)cc3)cc2)cc1 [CD101] ({pTerphenylCO(4''-OnC5H11)}-[Orn(4R-OH,5R-OCH2CH2NMe3+)]T[Hyp][hTyr(3S-OH,4S-OH)]T[Pro(3S-OH,4S-Me)]; lactam 1-C)
[1]; [3]
  Group Geometric mean: 9.11 × 10^2 CFU/mL
  Log Group Geometric mean: 2.96 CFU/mL
  Log reduction from vehicle control: −0.52 CFU/mL
[1]; [4]
  Group Geometric mean: 3.34 × 10^2 CFU/mL
  Log Group Geometric mean: 2.52 CFU/mL
  Log reduction from vehicle control: 1.17 CFU/mL
[1]; [5]
  Group Geometric mean: 1.21 × 10^2 CFU/mL
  Log Group Geometric mean: 2.08 CFU/mL
  Log reduction from vehicle control: 1.49 CFU/mL
[1]; [6]
  Group Geometric mean: 1.70 × 10^3 CFU/mL
  Log Group Geometric mean: 3.23 CFU/mL
  Log reduction from vehicle control: 0.99 CFU/mL
[1]; [7]
  Group Geometric mean: 4.56 × 10^3 CFU/mL
  Log Group Geometric mean: 3.66 CFU/mL
  Log reduction from vehicle control: 0.52 CFU/mL
[1]; [8]
  Group Geometric mean: 4.58 × 10^3 CFU/mL
  Log Group Geometric mean: 3.66 CFU/mL
  Log reduction from vehicle control: 0.64 CFU/mL
[1]; [9]
  Group Geometric mean: 1.37 × 10^5 CFU/g
  Log Group Geometric mean: 5.14 CFU/g
[1]; [10]
  Group Geometric mean: 1.83 × 10^3 CFU/mL
  Log Group Geometric mean: 3.26 CFU/mL
  Log reduction from vehicle control: −0.83 CFU/mL
[1]; [11]
  Group Geometric mean: 2.56 × 10^2 CFU/mL
  Log Group Geometric mean: 2.41 CFU/mL
  Log reduction from vehicle control: 1.29 CFU/mL
[1]; [12]
  Group Geometric mean: 1.95 × 10^2 CFU/mL
  Log Group Geometric mean: 2.29 CFU/mL
  Log reduction from vehicle control: 1.28 CFU/mL
[1]; [13]
  Group Geometric mean: 1.73 × 10^3 CFU/mL
  Log Group Geometric mean: 3.24 CFU/mL
  Log reduction from vehicle control: 0.98 CFU/mL
[1]; [14]
  Group Geometric mean: 6.47 × 10^2 CFU/mL
  Log Group Geometric mean: 2.81 CFU/mL
  Log reduction from vehicle control: 1.37 CFU/mL
[1]; [15]
  Group Geometric mean: 1.28 × 10^3 CFU/mL
  Log Group Geometric mean: 3.11 CFU/mL
  Log reduction from vehicle control: 1.19 CFU/mL
[1]; [16]
  Group Geometric mean: 4.00 × 10^4 CFU/g
  Log Group Geometric mean: 4.60 CFU/g
[1]; [17]
  Group Geometric mean: 3.68 × 10^2 CFU/mL
  Log Group Geometric mean: 2.57 CFU/mL
  Log reduction from vehicle control: −0.13 CFU/mL
[1]; [18]
  Group Geometric mean: 2.48 × 10^2 CFU/mL
  Log Group Geometric mean: 2.39 CFU/mL
  Log reduction from vehicle control: 1.30 CFU/mL
[1]; [19]
  Group Geometric mean: 23.2 CFU/mL
  Log Group Geometric mean: 1.37 CFU/mL
  Log reduction from vehicle control: 2.21 CFU/mL
[1]; [20]
  Group Geometric mean: 1.73 CFU/mL
  Log Group Geometric mean: 0.24 CFU/mL
[1]; [21]
  Group Geometric mean: 2.59 CFU/mL
  Log Group Geometric mean: 0.41 CFU/mL
  Log reduction from vehicle control: 3.77 CFU/mL
[1]; [22]
  Group Geometric mean: 2.75 CFU/mL
  Log Group Geometric mean: 0.44 CFU/mL
  Log reduction from vehicle control: 3.86 CFU/mL
[1]; [23]
  Group Geometric mean: 5.52 CFU/g
  Log Group Geometric mean: 0.74 CFU/g
  Log reduction from vehicle control: 4.75 CFU/g
[1]; CD101 5 mg/kg once or twice, lavage Day 5 post infection
  burden reduction: about 1 Log10 CFU/m
[1]; CD101 10 mg/kg dosed once, lavage Day 5 post infection
  rats having burden below the limit of detection: 5/6
[1]; CD101 10 mg/kg dosed once, terminal vaginal tissue Day 9
  rats with burdens below the levels of detection: 5/6
[1]; all doses of CD101, lavage Day 2 post infection
  reduction in burden: about 1.3 Log10 CFU/mL
[2]; strain 1 VPCI 669/P/12
  MIC: 0.5 µg/mL
[2]; strain 2 VCPI 671/P/12
  MIC: 0.5 µg/mL
[2]; strain 3 VCPI 674/P/12
  MIC: 0.25 µg/mL
[2]; strain 4 VCPI 683/P/12
  MIC: 0.5 µg/mL
[2]; strain 5 VCPI 692/P/12
  MIC: 0.5 µg/mL
[2]; strain 6 VCPI 712/P/12
  MIC: 0.25 µg/mL
[2]; strain 7 VCPI 471/P/13
  MIC: 0.5 µg/mL
[2]; strain 8 VCPI 475/P/13
  MIC: 0.5 µg/mL
[2]; strain 9 VCPI 478/P/13
  MIC: 0.25 µg/mL
[2]; strain 10 VCPI 479/P/13
  MIC: 0.25 µg/mL
[2]; strain 11 VCPI 480/P/13
  MIC: 0.25 µg/mL
[2]; strain 12 VCPI 482/P/13
  MIC: 0.25 µg/mL
[2]; strain 13 VCPI 483/P/13
  MIC: 0.25 µg/mL
[2]; strain 14 VCPI 1130/P/13
  MIC: 0.5 µg/mL
[2]; strain 15 VCPI 1132/P/13
  MIC: 0.5 µg/mL
[2]; strain 16 VCPI 1133/P/13
  MIC: 16 µg/mL
[2]; strain 17 VCPI 105/P/14
  MIC: 0.25 µg/mL
[2]; strain 18 VCPI 107/P/14
  MIC: 0.125 µg/mL
[2]; strain 19 VCPI 510/P/14
  MIC: 0.25 µg/mL
[2]; strain 20 VCPI 511/P/14
  MIC: 0.25 µg/mL
[2]; strain 21 VCPI 512/P/14
  MIC: 0.25 µg/mL
[2]; strain 22 VCPI 513/P/14
  MIC: 0.5 µg/mL
[2]; strain 23 VCPI 514/P/14
  MIC: 0.5 µg/mL
[2]; strain 24 VCPI 250/P/14
  MIC: 0.25 µg/mL
[2]; strain 25 VCPI 265/P/14
  MIC: 16 µg/mL
[2]; strain 26 VCPI 266/P/14
  MIC: 0.5 µg/mL
[2]; strain 27 VCPI 462/P/14
  MIC: 16 µg/mL

Source: patent US20190307843A1, “SINGLE DOSE METHODS FOR PREVENTING AND TREATING FUNGAL INFECTIONS” (Cidara Therapeutics, Inc., priority 2016, published 2019)
